Assays:
[1] = system: HEK293 cells expressing rAAV9 particles; assay: Effect of NaCl and/or sodium propionate on rAAV9 yield, microscale bioreactors (Example 5); assay type: cell-based, human; conditions: effects of other conditions averaged
Procedure: The effect of sodium chloride and sodium propionate (NaPr) (ThermoFisher Scientific) on rAAV yield in a suspension culture of HEK293 cells expressing rAAV9 particles encapsidating a transgene. HEK293 cells were seeded at 1×10e6 viable cell/ml density in advanced microscale bioreactors. The medium comprised 100 mM NaCl. At 48 hrs ECD (Elapsed Culture Duration), the cells were transfected with a mixture of polyethylenimine and 3 plasmids encoding adeno-virus helper functions, transgene and AAV 2/9 Rep/Cap. 4, 20, or 36 hours after transfection, NaCl, NaPr, anti-clump, EFC+, and/or Na valproate was added to the cultures. Conditions tested were 0, 30 mM and 60 mM NaCl, 0, 2 mM and 4 mM NaPr. Multiple conditions were tested using a Design of Experiment approach. The supernatant of the cultures was harvested at […], i.e., 5 days post-transfection. rAAV yields were obtained. […] Resulting titer improvement by adding NaCl and/or NaPr is shown in FIG. 3 where the effects of other tested conditions are averaged. […] The observed ˜2-fold increase is higher than what would be expected if the effect of NaPr and increased NaCl were additive.

[2] = system: recombinant IgG production; conditions: alone; small culture conditions less than 50 L; cited from earlier work
[3] = system: CHO cells; conditions: cited from earlier work
[4] = system: HEK293 cells expressing AAV8 particles; assay: Large scale (50 liter) rAAV production using NaCl enhancer (Example 3); assay type: cell-based, human; conditions: 50 liter culture; NaCl increased by 60 mM 24 hours post transfection
Procedure: The effect of NaCl on rAAV yield was tested in 50 liter cultures of HEK293 cells expressing AAV8 particles encapsidating a transgene. HEK suspension cultures were grown using standard processes. Cells were diluted to ˜4×10e6 viable cells. The medium used included 100 mM NaCl. Cells were transfected 24 hours post dilution with a mixture of polyethylenimine and 3 plasmids encoding adeno-virus helper functions, transgene and AAV […]. 24 hours post transfection, sufficient NaCl was added to increase the final NaCl concentration by 60 mM. (i.e., the final NaCl concentration was ˜160 mM). Supernatant was harvested on day 4 post transfection. The processes yielded 1×10e+11 genome copy (GC)/ml and 9×10e+10. This is ˜2-fold higher than the yield of the same process without the increase in NaCl concentration following transfection.

In the case of `CCC(=O)[O-].[Na+]` [sodium propionate], the “increase in the titer” value ([1]; 2 mM sodium propionate in the absence of increased NaCl) is listed as ~1.5 fold and the “effect on recombinant IgG production” value [2] is listed as “no strong effect alone”.

For `CCCC(=O)O` [butyric acid], the cell growth [3] is given as “inhibited cell growth” and the “production of recombinant B-domain deleted factor VIII” value [3] is given as “enhanced production”.

In the case of `CCC(=O)O` [propionic acid], the “production of recombinant B-domain deleted factor VIII” value [3] is listed as “enhanced production”.

With `[Cl-].[Na+]` [NaCl, sodium chloride] the “increase in the titer” value ([1]; increased NaCl in the absence of sodium propionate) was ~1.2 fold and the “yield relative to the same process without the increase in NaCl concentration” value [4] was ~2 fold.

Source: US12612644B2, “Scalable method for recombinant AAV production” (REGENXBIO Inc., priority 2018, dated 2026)
